Test results reported in patent US8377691B2 (priority 2006, dated 2013).
“Also recorded” adds a separate entry of the source.

System: A/M2 VN1194
Format: biochemical

SMILES	H+ transport across VLP membranes (fluorescence)
NC12CC3CC(CC(C3)C1)C2 [amantadine]	exerted no effect; also recorded: did not, however, influence
CC(N)C12CC3CC(CC(C3)C1)C2 (centres unmarked) [rimantadine]	exerted no effect
